{"source": "patent US9561214B2", "about": "“Method of treatment using inhibitors of mitosis” (Array BioPharma Inc., priority 2008, dated 2017)", "key": {"[1]": {"test": "Determination of MTD in a Phase 1 study in patients with solid tumors", "assay_type": "in vivo", "description": "A total of 13 patients with various solid tumors and with a median age of 66 years (range 40-79 years old) were enrolled in a human phase 1 clinical trial (see “Phase I Safety and Pharmacokinetic Study of ARRY-520 in Solid Tumors.” http://clinicaltrials.gov/ct2/show/NCT00462358, herein incorporated by reference). The solid tumors treated were breast cancer (2), colorectal cancer (2), non-small cell lung cancer (2), pancreatic cancer (2), bladder cancer, salivary gland cancer (adenoid cystic), esophageal cancer, mesothelioma cancer, and a mixed small cell lung cancer/non-small cell lung cancer. Compound 4 was provided for administration as a lyophilized powder contained in a Type 1 clear glass vial for IV use. The dose levels administered were 1.25 and 1.6 mg/m^2/day of Compound 4 on Days 1 and 2 every two weeks."}, "[2]": {"test": "Tumor growth inhibition on different dosing schedules (HT-29), tolerability", "assay_type": "in vivo", "details": "10 mg/kg IP on days 1, 2, 3, 4 and 5; female nude mice with HT-29 xenografts", "protocol": "Female nude mice were implanted subcutaneously with 5×10^6 HT-29 cells in 100 μL PBS. Eleven to fourteen days later, tumors were measured and mice randomized into groups of seven with average tumor volume in each group of approximately 230 mm^3. Compound 4 was dissolved in normal saline immediately prior to dosing, and administered IP at a volume of 10 mL/kg. Dosing was vehicle alone on day 1 and day 2; and Compound 4 at 20 mg/kg on day 1; 20 mg/kg on days 1 and 2; 20 mg/kg on days 1 and 3; 5 mg/kg on days 1, 2 and 3; 10 mg/kg on days 1, 2 and 3; 10 mg/kg on days 1, 2, 3, 4 and 5; 10 mg/kg on days 1 and 2; and 10 mg/kg on days 1 and 3. Animal weights and tumor volumes were measured (using electronic calipers) twice a week. Tumor volume was calculated using the formula: volume=(width^2×length)/2. Dosing at 10 mg/kg on days 1, 2, 3, 4 and 5 was not tolerated (greater than 20% weight loss and/or death in some of the mice)."}, "[3]": {"test": "Determination of MTD in nude mice (HT-29 xenograft study)", "details": "mouse, in vivo; female nude mice with subcutaneous HT-29 xenografts; dissolved in normal saline", "protocol": "Female nude mice were implanted subcutaneously with 5×10^6 HT-29 cells in 100 μL PBS. Ten days later, tumors were measured and mice randomized into groups of three with average tumor volume in each group of approximately 240 mm^3. Compound 4 was dissolved in normal saline immediately before dosing. It was determined that 20 mg/kg was the MTD for Compound 4. Dose volume was 10 mL/kg. Dosing was vehicle alone on day 1; and Compound 4 at 20 mg/kg on day 1; and 20 mg/kg on days 1 and 3. At various time points after dosing (24, 48, 72, 96, 120 and 144 hours), mice were euthanized by CO2 inhalation, and the tumors were harvested and immediately placed in formalin. The vehicle control group samples were collected 24 and 72 hours after dosing. The day 1 group samples were collected 24, 48, 72 and 96 hours after that dose. The day 1 and day 3 group samples were collected 72, 96, 120 and 144 hours after the first dose. Paraffin blocks of tumor tissue were prepared by standard procedures. […] Spindle structures were manually counted in three 40× areas of each sample, using a fluorescent microscope. Apoptosis was quantitated by manual counting of TUNEL positive cells, also in three 40× areas of each sample (TUNEL staining using the In Situ Cell Death Detection Kit, AP from Roche)."}}}
{"smiles": "CON(C)C(=O)N1N=C(c2cc(F)ccc2F)S[C@@]1(CCCN)c1ccccc1", "note": "[Compound 4, (S)-2-(3-aminopropyl)-5-(2,5-difluorophenyl)-N-methoxy-N-methyl-2-phenyl-1,3,4-thiadiazole-3(2H)-carboxamide]", "values": [{"measurement": "MTD", "setting": "[1]; IV on Days 1 and 2 every two weeks, 13 patients with solid tumors, dose levels 1.25 and 1.6 mg/m^2/day", "value": 1.25, "unit": "mg/m^2/day"}, {"measurement": "MTD, cumulative dose per cycle", "setting": "[1]; IV on Days 1 and 2 every two weeks, patients with solid tumors", "value": 2.5, "unit": "mg/m^2"}, {"measurement": "DLTs", "setting": "[1]; human, in vivo, iv", "value": "Grade 3 hyponatremia, anorexia, AST increase and febrile neutropenia"}, {"measurement": "tolerability of dosing schedule", "setting": "[2]", "value": "not tolerated"}, {"measurement": "weight loss and/or death in some of the mice", "setting": "[2]", "value": "greater than 20%"}, {"measurement": "MTD", "setting": "[3]", "value": 20, "unit": "mg/kg"}]}
